The IC50 is the concentration needed to halve the response being measured. Read a low IC50 as greater potency in that assay.

Positions count from the first letter of the chain named. Entries after “also recorded” stand apart in the source; their conditions may differ.

Experiment [1] addresses T1, H874Y mutant of full-length AR (Homo sapiens, UniProt P10275, H875Y).
T1 sequence (P10275 1-920 H875Y): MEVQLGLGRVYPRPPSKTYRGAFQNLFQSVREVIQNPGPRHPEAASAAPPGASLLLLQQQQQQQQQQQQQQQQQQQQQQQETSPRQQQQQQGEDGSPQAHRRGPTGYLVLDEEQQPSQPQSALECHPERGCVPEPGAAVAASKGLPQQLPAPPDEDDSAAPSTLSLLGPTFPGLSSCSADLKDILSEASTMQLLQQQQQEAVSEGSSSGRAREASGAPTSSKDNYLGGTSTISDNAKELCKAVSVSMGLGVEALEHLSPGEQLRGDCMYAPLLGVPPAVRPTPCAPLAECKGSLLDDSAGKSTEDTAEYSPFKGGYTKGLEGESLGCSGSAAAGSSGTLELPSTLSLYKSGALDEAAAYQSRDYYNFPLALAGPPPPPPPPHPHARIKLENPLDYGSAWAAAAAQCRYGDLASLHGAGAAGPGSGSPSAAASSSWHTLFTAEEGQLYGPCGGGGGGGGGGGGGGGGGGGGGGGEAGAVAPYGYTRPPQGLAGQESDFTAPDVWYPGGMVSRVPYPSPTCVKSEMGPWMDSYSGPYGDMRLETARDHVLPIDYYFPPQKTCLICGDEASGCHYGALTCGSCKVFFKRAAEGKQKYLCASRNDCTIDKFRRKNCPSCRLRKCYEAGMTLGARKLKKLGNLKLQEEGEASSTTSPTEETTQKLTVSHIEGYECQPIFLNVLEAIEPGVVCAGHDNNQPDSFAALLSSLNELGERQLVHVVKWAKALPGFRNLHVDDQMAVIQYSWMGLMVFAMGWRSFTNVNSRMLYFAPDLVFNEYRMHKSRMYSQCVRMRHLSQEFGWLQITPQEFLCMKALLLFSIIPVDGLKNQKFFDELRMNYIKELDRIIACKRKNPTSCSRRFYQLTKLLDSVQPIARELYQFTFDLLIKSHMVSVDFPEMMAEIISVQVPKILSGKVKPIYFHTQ
The experiment can be described thus: AR H874Y mutant PSA-luc reporter assay in PC3 cells. The class given is cell-based. To be noted: for inhibition of DHT-induced transactivation of H874Y mutant AR (PSA-luc): 10 nM DHT, PC3 cells, 24 h. On the technique in general: Reporter assays use an easily measured gene product as a stand-in for the process of interest.

Experiment [2] addresses T2, endogenous AR T877A mutant in LNCaP cells (Homo sapiens, UniProt P10275, T878A).
T2 construct: LNCaP cells, which express endogenous AR T877A mutant; endogenous in cells; host or cells: LNCaP
T2 sequence (P10275 1-920 T878A): T1 sequence (P10275 1-920 H875Y) with Y875H, T878A
Briefly: PSA-luc reporter assay in LNCaP cells (endogenous AR T877A mutant). The format is cell-based. On the procedure:
Experiments were in duplicate and repeated three times. […] LNCaP cells in whole medium were exposed to DMSO vehicle control or compounds for 24 h.

Experiment [3] deals with endogenous AR-Vs in 22Rv1 cells. Briefly: PSA-luc reporter assay in androgen-starved 22Rv1 cells (endogenous LBD-truncated AR variants). To be noted: androgen-starved 3 days, 24 h exposure.
Protocol: NT, LNCaP cells were transiently transfected with pIRES vector, PSA-luc and pRL-TK. […] Cells were then transiently transfected with PSA-Luc and pRL-TK and exposed to DMSO or compounds for 24 h, in triplicate. NT, not transfected with PSA-luc.
The ARs were probed by N-terminal directed AR antibody (N20, Santa Cruz); B) The 22Rv1 cells were androgen-starved (in phenol red-free medium+10% CS-FBS) for 3 days to ensure the full-length AR expressed in 22Rv1 are not activated. The 22Rv1 cells were subsequently co-transfected with PSA-luc and pRL-TK plasmids. […] Cells in phenol red-free medium+10% CS-FBS were exposed to DMSO or compounds for 24 h and harvested for Western blot analysis.
The cells were androgen-starved for 3 days and transfected with PSA-Luc and pRL-TK plasmids. NT, cells were transfected with empty vector. Cells were exposed to vehicle control or compounds for 24 h.

As for `O=C(Nc1cccc(C(F)(F)F)c1)Nc1ccc([N+](=O)[O-])c(C(F)(F)F)c1` [Compound 442], in experiment [1], the “agonism of AR H874Y mutant” value is reported as “non-agonist” and the “inhibition of DHT-induced transactivation of H874Y mutant AR (PSA-luc)” value (“inhibition … of H874Y mutant AR (PSA-luc)” below) is recorded as “dose-dependently suppressed; also recorded: dose-dependently inhibit”. The “inhibition of DHT-induced activation of endogenous AR in LNCaP cells (PSA-luc)” value (shortened to “inhibition of DHT-induced activation … (PSA-luc)”) in experiment [2] (24 h) is recorded as “potently inhibit; also recorded: suppressed”. In addition, in experiment [2] (PSA-luc, 24 h), the “effect of increasing DHT from 1 nM to 10 nM on inhibitory activity in LNCaP cells” value was “not competed out”. For the same molecule, in experiment [3], the “activity against constitutive activation of endogenous AR-Vs in 22Rv1 cells (PSA-luc)” value was “significantly suppressed; also recorded: active”.
In the case of `N#Cc1ccc(NC(=O)Nc2cccc(C(F)(F)F)c2)cc1C(F)(F)F` [Compound 467], in experiment [1], the “agonism of AR H874Y mutant” value was “non-agonist” and the “inhibition … of H874Y mutant AR (PSA-luc)” value is on record as “dose-dependently suppressed; also recorded: dose-dependently inhibit”. Further, the “inhibition of DHT-induced activation … (PSA-luc)” value in experiment [2] (24 h) is reported as “potently inhibit; also recorded: suppressed”. Moreover, the “activity against constitutive activation of endogenous AR-Vs in 22Rv1 cells (PSA-luc)” value in experiment [3] is “significantly suppressed; also recorded: active”.
On to `N#Cc1ccc(NC(=O)Nc2cccc(C(F)(F)F)c2)cc1Cl` [Compound 492], for which, in experiment [1], the “agonism of AR H874Y mutant” value is “non-agonist” and the “inhibition … of H874Y mutant AR (PSA-luc)” value is on record as “dose-dependently suppressed; also recorded: dose-dependently inhibit”.
As to `O=C(N/C=C/c1cccc(C(F)(F)F)c1)Nc1ccncn1` [Compound 562], the “inhibition … of H874Y mutant AR (PSA-luc)” value in experiment [1] was “inhibit”. In addition, the “inhibition of DHT-induced activation … (PSA-luc)” value in experiment [2] (24 h) is “suppressed; also recorded: potently inhibited; also recorded: good activity”. The IC50 in experiment [2] (FIG. 11) was around 1000 nM. Besides, the “activity against constitutive activation of endogenous AR-Vs in 22Rv1 cells (PSA-luc)” value in experiment [3] is “remain active; also recorded: greater inhibitory activity than EPI-001”.
For `O=C(Nc1ccc(Br)nc1)Nc1cc(C(F)(F)F)cc(C(F)(F)F)c1` [Compound 566], in experiment [3], the “activity against constitutive activation of endogenous AR-Vs in 22Rv1 cells (PSA-luc)” value is reported as “active; also recorded: greater inhibitory activity than EPI-001”.
Take `O=C(Nc1cccc(C(F)(F)F)c1)Nc1ccc(NC(=O)c2ccccc2F)c(C(F)(F)F)c1` [Compound 746]: the “inhibition … of H874Y mutant AR (PSA-luc)” value in experiment [1] is reported as “inhibit”. In addition, the “inhibition of DHT-induced activation … (PSA-luc)” value in experiment [2] (24 h) is “suppressed; also recorded: potently inhibited; also recorded: good activity”. Also, the “inhibitory activity compared with EPI at 25 μM (FIG. 11)” value in experiment [2] (compound at 2.5 μM) is “greater inhibitory activity than EPI at 25 μM”. In experiment [3], the “activity against constitutive activation of endogenous AR-Vs in 22Rv1 cells (PSA-luc)” value is “remain active; also recorded: greater inhibitory activity than EPI-001”.
